In the test the target is human α5β3γ2 receptors (α5-GABAA receptor) (Homo sapiens (Human), UniProt P18507+P31644). Description: 3H-flunitrazepam competition binding, human α5β3γ2 GABAA receptor. The following applies: HEK293 cell membranes, 1 nM 3H-flunitrazepam; read-out: α5-GABAAR Ki. The protocol: The affinity of the compound to each subtype of GABAA receptor was determined by competing for the binding of ^3H-flunitrazepam to HEK293 cells stably expressing human α1β3γ2, α2β3γ2, α3β3γ2, and α5β3γ2 receptors.
The cells were suspended in 50 mM Tris-HCl buffer (pH=7.4), homogenized 10 times on ice with a homogenizer for 20 seconds, and centrifuged at 1000 g for 10 minutes at 4° C. The supernatant was collected, and the above steps were repeated. The supernatant was centrifuged at 4° C. (33800 g; Thermo, rotor: A27-8×50) for 60 minutes, and the precipitate was resuspended in Tris buffer (50 mM Tris-HCl, 10 mM MgCl2, 0.5 mM EDTA, 10% glycerol). Protein was measured (BCA method, Pierce), and 1 mL aliquots were prepared and stored at −80° C.
The radioligand competition binding assay was performed in a 200 μL system (96-well plate) containing 100 μL of cell membrane. The concentration of ^3H-flunitrazepam was 1 nM and the concentration of the test compound was in the range of […]. Flumazenil was used as a control. 1 μL of 2 mM flumazenil (final concentration […]) was added to the low signal control well (Low control, LC), and 1 μL of DMSO was added to the high signal control well (High control, HC). The final concentration of target membrane protein was […]. All test compound sample storage solutions were 10 mM. The working concentration of the samples was to dilute all the samples to 0.2 mM with DMSO, followed by 4-fold serial gradient dilutions for a total of 8 concentration gradients. The 96-well plate was sealed with a sealing film, and then incubated on a shaker at room temperature for 1 hour. At the same time, the GF/C filter plate was soaked in soaking buffer (0.3% PEI, stored at 4° C.) for at least 0.5 hours. After the binding incubation was completed, the cells were collected onto a GF/C filter plate using a cell harvester. The plate was washed four times with washing buffer (50 mM Tris-HCl, pH 7.4, stored at 4° C.). After drying in a 50° C. oven for 1 hour, the bottom of the dried GF/C filter plate was sealed. The residual radioactivity on the filter membrane was detected using liquid scintillation counting. 50 μL of scintillation fluid was added to each well, and the plate was sealed. The readings were taken using a Microbeta2. The inhibitory activity of the test sample on the binding of ^3H-flunitrazepam to GABAA receptor membrane proteins was calculated, and the IC50 of each test sample was calculated by dose-effect curve fitting (GraphPad Prism 5 software), and the Ki of the sample was calculated from the IC50, thus evaluating the binding ability of the sample to the various subtypes of GABAA receptors.
Usually Ki stands for a dissociation constant, usually derived from enzyme kinetics or from competition with a known ligand. Regarding `Cc1nnn(-c2ccc(C(F)F)cc2)c1COc1ccc(N2CCN(CCCc3ccc(Cl)cc3)C(=O)C2)nn1` [Example 144, 1-(3-(4-Chlorophenyl)propyl)-4-(6-((1-(4-(difluoromethyl)phenyl)-4-methyl-1H-1,2,3-triazol-5-yl)methoxy)pyridazin-3-yl)piperazin-2-one], the Ki turned out to be 1.63 nM. The same measure for `Cc1nnn(-c2ccc(C(F)F)cc2)c1COc1ccnc(N2CCNC(=O)C2)n1` [Example 213, 4-(4-((1-(4-(Difluoromethyl)phenyl)-4-methyl-1H-1,2,3-triazol-5-yl)methoxy)pyrimidin-2-yl)piperazin-2-one]: 54.1 nM; for `Cc1nnn(-c2ccc(C(F)F)cc2)c1COc1ccc(N2CC3(CCNC3=O)C2)nn1` [Example 86, 2-(6-((1-(4-(Difluoromethyl)phenyl)-4-methyl-1H-1,2,3-triazol-5-yl)methoxy)pyridazin-3-yl)-2,6-diazaspiro[3.4]octan-5-one]: 8.31 nM. The same measure for `CCNC(=O)CC1CN(c2ccc(OCc3c(C)nnn3-c3ccc(C(F)F)cc3)nn2)CCO1` (stereo not shown) [Example 63, 2-(4-(6-((1-(4-(Difluoromethyl)phenyl)-4-methyl-1H-1,2,3-triazol-5-yl)methoxy)pyridazin-3-yl)morpholin-2-yl)-N-ethylacetamide]: 1.49 nM; for `Cc1nnn(-c2ccc(C(F)F)cc2)c1COc1ccc(N2CCN(C3CN(C(C)C)C3)C(=O)C2)nn1` [Example 142, 4-(6-((1-(4-(Difluoromethyl)phenyl)-4-methyl-1H-1,2,3-triazol-5-yl)methoxy)pyridazin-3-yl)-1-(1-isopropylazetidin-3-yl)piperazin-2-one]: 1.8 nM. To `Cc1nnn(-c2ccc(C(F)F)cc2)c1COc1ccc(N2CC3(CNC(=O)C3)C2)nn1` [Example 87, 2-(6-((1-(4-(Difluoromethyl)phenyl)-4-methyl-1H-1,2,3-triazol-5-yl)methoxy)pyridazin-3-yl)-2,6-diazaspiro[3.4]octan-7-one] belongs 3.46 nM; to `Cc1cc(-c2nnn(-c3ccc(C(F)F)cc3)c2COc2ccc(N3CCNC(=O)C3)nn2)no1` [Example 188, 4-(6-((1-(4-(Difluoromethyl)phenyl)-4-(5-methylisoxazol-3-yl)-1H-1,2,3-triazol-5-yl)methoxy)pyridazin-3-yl)piperazin-2-one], 40.6 nM; to `COc1cccnc1NC(=O)C1CN(c2ccc(OCc3c(C)nnn3-c3ccc(C(F)F)cc3)nn2)C1` [Example 152, 1-(6-((1-(4-(Difluoromethyl)phenyl)-4-methyl-1H-1,2,3-triazol-5-yl)methoxy)pyridazin-3-yl)-N-(3-methoxypyridin-2-yl)azetidine-3-carboxamide], 1.65 nM. As to `Cc1nnn(-c2ccc(C(F)F)cc2)c1COc1ccc(N2CCCNC(=O)C2)nn1` [Example 4, 4-(6-((1-(4-(Difluoromethyl)phenyl)-4-methyl-1H-1,2,3-triazol-5-yl)methoxy)pyridazin-3-yl)-1,4-diazepan-2-one], the Ki was found to be 7.25 nM. The same measure for `Cc1nnn(-c2ccc(C(F)F)cc2)c1COc1ccc(N2CCN(CCn3cccn3)C(=O)C2)nn1` [Example 138, 1-(2-(1H-Pyrazol-1-yl)ethyl)-4-(6-((1-(4-(difluoromethyl)phenyl)-4-methyl-1H-1,2,3-triazol-5-yl)methoxy)pyridazin-3-yl)piperazin-2-one]: 2.11 nM; for `Cc1nnn(-c2ccc(C(F)F)cc2)c1COc1ccc(N2CCn3cnnc3C2)nn1` [Example 84, 7-(6-((1-(4-(Difluoromethyl)phenyl)-4-methyl-1H-1,2,3-triazol-5-yl)methoxy)pyridazin-3-yl)-5,6,7,8-tetrahydro-[1,2,4]triazolo[4,3-a]pyrazine]: 0.6 nM; for `O=C1CN(c2ccc(OCc3c(C(F)F)nnn3-c3ccc(C(F)F)cc3)nn2)CCN1` [Example 185, 4-(6-((4-(Difluoromethyl)-1-(4-(difluoromethyl)phenyl)-1H-1,2,3-triazol-5-yl)methoxy)pyridazin-3-yl)piperazin-2-one]: 0.96 nM. To `CCNC(=O)C12CC(CN1c1ccc(OCc3c(C)nnn3-c3ccc(C(F)F)cc3)nn1)C2` [Example 115, 2-(6-((1-(4-(Difluoromethyl)phenyl)-4-methyl-1H-1,2,3-triazol-5-yl)methoxy)pyridazin-3-yl)-N-ethyl-2-azabicyclo[2.1.1]hexane-1-carboxamide] belongs 1.25 nM; to `Cc1nnn(-c2ccc(C(F)F)cc2)c1COc1ccc(N2CC(C(=O)N3CCOC(C)(C)C3)C2)nn1` [Example 158, (1-(6-((1-(4-(Difluoromethyl)phenyl)-4-methyl-1H-1,2,3-triazol-5-yl)methoxy)pyridazin-3-yl)azetidin-3-yl)(2,2-dimethylmorpholino)methanone], 4.31 nM.

With `COCCCN1CCN(c2ccc(OCc3c(C)nnn3-c3ccc(C(F)F)cc3)nn2)CC1=O` [Example 140, 4-(6-((1-(4-(Difluoromethyl)phenyl)-4-methyl-1H-1,2,3-triazol-5-yl)methoxy)pyridazin-3-yl)-1-(3-methoxypropyl)piperazin-2-one], the Ki was determined as 1.41 nM. The same measure for `O=C1NCCN2CCN(c3ccc(OCc4c(CC5CC5)nnn4-c4ccc(C(F)F)cc4)nn3)C[C@@H]12` [Example 187, (S)-8-(6-((4-(Cyclopropylmethyl)-1-(4-(difluoromethyl)phenyl)-1H-1,2,3-triazol-5-yl)methoxy)pyridazin-3-yl)hexahydro-2H-pyrazino[1,2-a]pyrazin-1(6H)-one]: 11.1 nM; for `Cc1nnc(C2CN(c3ccc(OCc4c(C)nnn4-c4ccc(C(F)F)cc4)nn3)C2)o1` [Example 53, 2-(1-(6-((1-(4-(Difluoromethyl)phenyl)-4-methyl-1H-1,2,3-triazol-5-yl)methoxy)pyridazin-3-yl)azetidin-3-yl)-5-methyl-1,3,4-oxadiazole]: 2.97 nM; for `Cc1nnn(-c2ccc(C(F)F)cc2)c1COc1ccc(N2CCN3c4ccncc4NC(=O)[C@@H]3C2)nn1` [Example 192, (S)-8-(6-((1-(4-(Difluoromethyl)phenyl)-4-methyl-1H-1,2,3-triazol-5-yl)methoxy)pyridazin-3-yl)-7,8,9,10-tetrahydro-5H-pyrazino[1,2-a]pyrido[3,4-e]pyrazin-6(6aH)-one]: 17.4 nM. The same measure for `Cc1nnn(-c2ccc(C(F)F)cc2)c1COc1ccc(N2CCN3C(=O)COC[C@@H]3C2)nn1` [Example 9, (S)-8-(6-((1-(4-(Difluoromethyl)phenyl)-4-methyl-1H-1,2,3-triazol-5-yl)methoxy)pyridazin-3-yl)hexahydropyrazino[2,1-c][1,4]oxazin-4(3H)-one]: 1.46 nM; for `Cc1nnn(-c2ccc(C(F)F)cc2)c1COc1ccc(N2CCN(c3ccn(C)n3)C(=O)C2)nn1` [Example 112, 4-(6-((1-(4-(Difluoromethyl)phenyl)-4-methyl-1H-1,2,3-triazol-5-yl)methoxy)pyridazin-3-yl)-1-(1-methyl-1H-pyrazol-3-yl)piperazin-2-one]: 0.81 nM; for `Cc1nnn(-c2ccc(C(F)F)cc2)c1COc1ccc(N2CCN[C@H](C(N)=O)C2)nn1` [Example 32, (S)-4-(6-((1-(4-(Difluoromethyl)phenyl)-4-methyl-1H-1,2,3-triazol-5-yl)methoxy)pyridazin-3-yl)piperazine-2-amide]: 2.94 nM. To `O=C1CN(c2ccc(OCc3c(CC4CC4)nnn3-c3ccc(C(F)F)cc3)nn2)CCN1` [Example 186] belongs 4.62 nM; to `Cc1nnn(-c2ccc(C(F)F)cc2)c1COc1ccc(C2CCNC(=O)C2)cn1` (stereo not shown) [Example 170, 4-(6-((1-(4-(Difluoromethyl)phenyl)-4-methyl-1H-1,2,3-triazol-5-yl)methoxy)pyridin-3-yl)piperidin-2-one], 2.3 nM; to `CCNC(=O)[C@@H]1CCCN1c1ccc(OCc2c(C)nnn2-c2ccc(C(F)F)cc2)nn1` [Example 42, (S)-1-(6-((1-(4-(Difluoromethyl)phenyl)-4-methyl-1H-1,2,3-triazol-5-yl)methoxy)pyridazin-3-yl)-N-ethylpyrrolidine-2-carboxamide], 115 nM. Consider `Cc1nnn(-c2ccc(C(F)F)cc2F)c1COc1ccc(N2CCNC(=O)C2)nn1` [Example 167, 4-(6-((1-(4-(Difluoromethyl)-2-fluorophenyl)-4-methyl-1H-1,2,3-triazol-5-yl)methoxy)pyridazin-3-yl)piperazin-2-one], for which the Ki was determined as 1.08 nM.
